These results are taken from patent publication US20250346629A1, “USE OF D-ENANTIOMERIC PEPTIDE LIGANDS OF MONOMERIC ALPHA-SYNUCLEIN FOR THE THERAPY OF VARIOUS SYNUCLEINOPATHIES” (PRIAVOID GMBH, priority 2021, published 2025).

Square brackets hold non-standard residues; d marks the D form. Peptide text beside a SMILES is read from it.

The term Kd denotes the free concentration of one partner at which half of the binding sites on the other are occupied at equilibrium, for simple one-to-one binding. The term koff denotes the first-order rate constant of dissociation. Read a high koff as fast dissociation.

In one experiment the target is α-syn (Homo sapiens, UniProt P37840). The experiment can be described thus: Kinetic single-cycle SPR assay with α-syn and immobilized peptides, CMD200M (FIG. 11). Format: binding. The conditions noted are these: kinetic 1:1 interaction model. As for the experimental part:
The measurements were carried out using an 8K-Biacore device (Cytiva, USA). The interactions were measured using single-cycle kinetics experiments. In all assays, the peptide compounds were immobilized as ligands on the sensor surface and recombinant α-syn was injected into the flow as the analyte. […] Surface quenching was carried out with 1 M ethanolamine at pH 8.3. Unless stated otherwise, the kinetic experiments were carried out at a flow rate of 30 μl/min in PBS, pH 7.4. The surface was regenerated between cycles using 30 s injections of 2 M Gua-HCl at 30 μl/min. Data evaluation was performed using the evaluation software Biacore insight v3.0 (Cytiva, USA).
The experiment was carried out as an individual measurement.
On the technique in general: SPR reads the build-up and loss of mass on a sensor chip optically.

A further experiment has as its target full-length α-syn (Homo sapiens, UniProt P37840). In words: MST measurement of fluorophore-labeled peptides with full-length α-syn (FIG. 10). It counts as binding. The following applies: 100 nM labeled peptide, PBS pH 7.4, 25° C., individual measurement. As for the experimental part:
The peptides were fluorescence labeled by means of cysteine-maleimide coupling. SVD-1_Cys and SVD 1a_Cys were fluorescence labeled at the C-terminus with a fivefold or tenfold molar excess of TCEP and CF633-PEG2-maleimide (Sigma-Aldrich, USA). The labeling reaction was carried out in 25 mM NaPi, PH 7.0, for 2 h at RT. The labeled peptides were purified at 25° C. using an Agilent 1260 Infinity II System and a C-18 RP-HPLC column (Zorbax 300 SB-C8/SB-C 18, Agilent, USA). The mobile phases consisted of A: water+0.1% TFA, and B: acetonitrile+0.1% TFA. The fluorescence-labeled peptides and proteins were eluted with a gradient of 5-40% (v/v) B in 30 min. The fluorescence-labeled products were fractionated using the absorption wavelength of the fluorophore (CF633: 633 nm) and the pooled samples were subsequently lyophilized and redissolved in the appropriate buffer. The protein concentrations were determined by means of UV-vis and the fluorescence-labeled samples were stored at −20° C.
The experiments for microscale thermophoresis (MST) were carried out using a Monolith NT.115 device (NanoTemper Technologies GmbH, GE). Fluorescence-labeled peptides were diluted in PBS, PH 7.4 to a final concentration of 100 nM. […] The data was evaluated with the thermophoresis effect, using the NT analysis software (version 1.5.41) supplied by the manufacturer. […]

Another experiment deals with α-syn PFF oligomers (Homo sapiens, UniProt P37840). In words: Decomposition of PFF oligomers (HPLC-SEC, DLS, AFM; FIG. 17). Format: biochemical. The following applies: 100 nM monomer-equivalent PFF oligomers, 400 and 1600 nM SVD-1a, 3 days, 37° C., PBS pH 7.4. As for the experimental part: PFF oligomers were produced as follows. Firstly, insoluble PFF was produced by incubating 300 μM of recombinant α-syn in a LoBind reaction tube (Eppendorf GmbH, GE) with a borosilicate glass bead (d=3.0 mm; Hilgenberg, DE) in 20 mM NaPi, pH 7.0, 150 […] for one week at 37° C. The insoluble PFF was harvested by ultracentrifugation at 100 000×g for 30 min at 4° C., and the pellet was washed several times with 20 mM NaPi, PH 7.0, 150 mM NaCl. The monomer equivalent concentration was determined by measuring the α-syn concentration in the supernatant after the first centrifugation and subtracting this from the start concentration for the fibrillation. The insoluble PFF was resuspended in buffer and frozen at −80° C. with liquid N2. […]
The elimination of PFF oligomers was assessed by SEC and the subsequent detection of the PFF oligomer and monomer peaks. […] The proteins were detected at A214.
The measurements were carried out using a SpectroSize 300 131 (XtalConcepts, GE) device and a sample volume of 1 ml in a sealed quartz cuvette (Hellma Group, GE). […] Data points were recorded every 30 seconds for time-dependent DLS measurements. […]
(A) HPLC-SEC measurement samples were injected onto a Bio SEC-3 column (300 Å, Agilent, USA). The PFF oligomers eluted after approximately 5 min, while the α-syn monomer was detected after approximately 8.6 min. […]

Consider `CC[C@@H](C)[C@@H](NC(=O)[C@@H](Cc1c[nH]cn1)NC(=O)[C@@H](CCC(=O)O)NC(=O)[C@@H](CCC(N)=O)NC(=O)[C@@H](Cc1c[nH]c2ccccc12)NC(=O)[C@@H](Cc1ccc(O)cc1)NC(=O)[C@H](NC(=O)[C@@H](CCC(=O)O)NC(=O)[C@@H](Cc1c[nH]cn1)NC(=O)[C@H](NC(=O)[C@H]1CCCN1C(=O)[C@@H](CC(C)C)NC(=O)[C@H](N)CCCNC(=N)N)[C@H](C)O)[C@H](C)O)C(=O)N[C@H](Cc1c[nH]c2ccccc12)C(=O)N[C@H](Cc1c[nH]cn1)C(=O)N[C@H](C)C(=O)N[C@H](CCCNC(=N)N)C(=O)N[C@H](CCCNC(=N)N)C(=O)N[C@H](CCCNC(=N)N)C(=O)N[C@H](CCCNC(=N)N)C(=O)N[C@H](CCCNC(=N)N)C(N)=O` [SVD-1a, rlpthetywqehiwharrrrr] (H-[dR][dL][dP][dT][dH][dE][dT][dY][dW][dQ][dE][dH][dI][dW][dH][dA][dR][dR][dR][dR][dR]-NH2), for which the Kd on α-syn (PBS 7.4, individual measurement) worked out at 0.1 nM; on full-length α-syn it was 390 nM. The koff on α-syn (PBS 7.4, as printed for SVD-1a) came out at 3.13e-05 s⁻¹. For the same molecule, the “effect on PFF oligomers” value at α-syn PFF oligomers was “decomposes the PFF oligomers into α-syn monomers”.
